These results are taken from the supplement of paper PMC10307832.

Test in all cases: relative viability (nuclei count vs DMSO), 5 days (fraction); higher = more cells survive
Compound in the test “Ispinesib + Phenformin”: Cc1ccc(C(=O)N(CCCN)[C@@H](c2nc3cc(Cl)ccc3c(=O)n2Cc2ccccc2)C(C)C)cc1 [Ispinesib] + N=C(N)NC(=N)NCCc1ccccc1 [Phenformin] (partner 250 µM)
In a few lines: (§1)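 After 5 days of treatment, lung cancer cells in 1536-well plates were fixed and stained in a single step (final 0.05% Triton X-100, 1% formaldehyde, 1 ug/ml Hoechst) and their nuclei counted on 4× images. Treatment had been applied by pin tool the day after seeding as one drug alone or as a fixed anchor-drug dose with five library-drug doses (not always all listed) in √10 steps. Relative viability is the nuclei count of treated wells divided by that of vehicle wells, and values are medians of duplicate plates.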

Compound in the test “Ispinesib + Crizotinib”: Cc1ccc(C(=O)N(CCCN)[C@@H](c2nc3cc(Cl)ccc3c(=O)n2Cc2ccccc2)C(C)C)cc1 [Ispinesib] + C[C@@H](Oc1cc(-c2cnn(C3CCNCC3)c2)cnc1N)c1c(Cl)ccc(F)c1Cl [Crizotinib] (partner 1 µM)
In short, it runs like this:
as §1

Compound in the test “Linsitinib + Olaparib”: C[C@]1(O)C[C@@H](c2nc(-c3ccc4ccc(-c5ccccc5)nc4c3)c3c(N)nccn32)C1 [Linsitinib] + O=C(c1cc(Cc2n[nH]c(=O)c3ccccc23)ccc1F)N1CCN(C(=O)C2CC2)CC1 [Olaparib] (partner 8 µM)
In short, it runs like this:
as §1

Compound in the test “Linsitinib + Phenformin”: C[C@]1(O)C[C@@H](c2nc(-c3ccc4ccc(-c5ccccc5)nc4c3)c3c(N)nccn32)C1 [Linsitinib] + N=C(N)NC(=N)NCCc1ccccc1 [Phenformin] (partner 250 µM)
In a few lines:
as §1

Take HCC-15: the relative viability with Ispinesib + Phenformin (first compound 0.001 µM) was determined as 0.567; with Ispinesib + Phenformin (first compound 0.003162 µM), 0.48; with Ispinesib + Phenformin (first compound 0.01 µM), 0.487; in the test with Ispinesib + Phenformin (first compound 0.03162 µM) it was 0.19; with Ispinesib + Phenformin (first compound 0.1 µM), 0.184; with Ispinesib + Crizotinib (first compound 0.001 µM), 0.892. For the same cell line, the relative viability in the test with Ispinesib + Crizotinib (first compound 0.003162 µM) worked out at 0.976; with Ispinesib + Crizotinib (first compound 0.01 µM) it was 0.97; with Ispinesib + Crizotinib (first compound 0.03162 µM), 0.489; with Ispinesib + Crizotinib (first compound 0.1 µM), 0.15; with Linsitinib + Olaparib (first compound 0.01 µM) it was 0.697; with Linsitinib + Olaparib (first compound 0.03162 µM), 0.938. Besides, the relative viability in the test with Linsitinib + Olaparib (first compound 0.1 µM) amounted to 0.759; with Linsitinib + Olaparib (first compound 0.3162 µM), 0.364; with Linsitinib + Olaparib (first compound 1 µM), 0.655; with Linsitinib + Phenformin (first compound 0.01 µM) it was 0.512; with Linsitinib + Phenformin (first compound 0.03162 µM), 0.46; with Linsitinib + Phenformin (first compound 0.1 µM), 0.433. Further, in the test with Linsitinib + Phenformin (first compound 1 µM), the relative viability worked out at 0.292.

With NCI-H2087, the relative viability with Ispinesib + Phenformin (first compound 0.001 µM) was 0.492; with Ispinesib + Phenformin (first compound 0.003162 µM) it was 0.473; with Ispinesib + Phenformin (first compound 0.01 µM), 0.441; in the test with Ispinesib + Phenformin (first compound 0.03162 µM), 0.32; with Ispinesib + Phenformin (first compound 0.1 µM), 0.134; in the test with Ispinesib + Crizotinib (first compound 0.001 µM), 0.839. Further, the relative viability with Ispinesib + Crizotinib (first compound 0.003162 µM) amounted to 1; with Ispinesib + Crizotinib (first compound 0.01 µM), 0.995; in the test with Ispinesib + Crizotinib (first compound 0.03162 µM) it was 0.61; in the test with Ispinesib + Crizotinib (first compound 0.1 µM) it was 0.146; in the test with Linsitinib + Olaparib (first compound 0.01 µM), 0.572; with Linsitinib + Olaparib (first compound 0.03162 µM), 0.639. The relative viability was 0.609 with Linsitinib + Olaparib (first compound 0.1 µM); 0.51 with Linsitinib + Olaparib (first compound 0.3162 µM); 0.47 with Linsitinib + Olaparib (first compound 1 µM); 0.498 in the test with Linsitinib + Phenformin (first compound 0.01 µM); 0.54 with Linsitinib + Phenformin (first compound 0.03162 µM); 0.417 with Linsitinib + Phenformin (first compound 0.1 µM). The relative viability with Linsitinib + Phenformin (first compound 0.3162 µM) was found to be 0.222; in the test with Linsitinib + Phenformin (first compound 1 µM) it was 0.365.

In the case of LCLC-103H, the relative viability in the test with Ispinesib + Phenformin (first compound 0.001 µM) was 0.34; with Ispinesib + Phenformin (first compound 0.003162 µM) it was 0.389; in the test with Ispinesib + Phenformin (first compound 0.01 µM), 0.366; with Ispinesib + Phenformin (first compound 0.03162 µM), 0.293; with Ispinesib + Phenformin (first compound 0.1 µM), 0.269; with Ispinesib + Crizotinib (first compound 0.001 µM) it was 1.08. Moreover, the relative viability with Ispinesib + Crizotinib (first compound 0.003162 µM) was 1.2; with Ispinesib + Crizotinib (first compound 0.01 µM), 1.08; with Ispinesib + Crizotinib (first compound 0.03162 µM), 0.999; with Ispinesib + Crizotinib (first compound 0.1 µM) it was 0.929; in the test with Linsitinib + Olaparib (first compound 0.01 µM) it was 0.743; with Linsitinib + Olaparib (first compound 0.03162 µM) it was 0.776. The relative viability in the test with Linsitinib + Olaparib (first compound 0.1 µM) came to 0.771; in the test with Linsitinib + Olaparib (first compound 0.3162 µM), 0.689; in the test with Linsitinib + Olaparib (first compound 1 µM), 0.758; in the test with Linsitinib + Phenformin (first compound 0.01 µM) it was 0.397; with Linsitinib + Phenformin (first compound 0.03162 µM), 0.344; in the test with Linsitinib + Phenformin (first compound 0.1 µM), 0.324. In addition, the relative viability in the test with Linsitinib + Phenformin (first compound 0.3162 µM) turned out to be 0.327; with Linsitinib + Phenformin (first compound 1 µM), 0.303.

Take NCI-H1650: the relative viability in the test with Ispinesib + Phenformin (first compound 0.001 µM) was determined as 0.512; with Ispinesib + Phenformin (first compound 0.003162 µM), 0.467; with Ispinesib + Phenformin (first compound 0.01 µM) it was 0.407; with Ispinesib + Phenformin (first compound 0.03162 µM), 0.182; with Ispinesib + Phenformin (first compound 0.1 µM), 0.305; with Ispinesib + Crizotinib (first compound 0.001 µM) it was 0.91. Moreover, the relative viability with Ispinesib + Crizotinib (first compound 0.003162 µM) turned out to be 1.05; with Ispinesib + Crizotinib (first compound 0.01 µM) it was 0.769; with Ispinesib + Crizotinib (first compound 0.03162 µM), 0.223; with Ispinesib + Crizotinib (first compound 0.1 µM), 0.325; with Linsitinib + Olaparib (first compound 0.01 µM), 0.871; with Linsitinib + Olaparib (first compound 0.03162 µM), 0.954. The relative viability in the test with Linsitinib + Olaparib (first compound 0.1 µM) amounted to 0.883; with Linsitinib + Olaparib (first compound 0.3162 µM), 0.735; in the test with Linsitinib + Olaparib (first compound 1 µM) it was 0.523; with Linsitinib + Phenformin (first compound 0.01 µM) it was 0.477; with Linsitinib + Phenformin (first compound 0.03162 µM) it was 0.406; in the test with Linsitinib + Phenformin (first compound 0.1 µM), 0.489. In addition, the relative viability is 0.272 with Linsitinib + Phenformin (first compound 0.3162 µM) and 0.254 with Linsitinib + Phenformin (first compound 1 µM).

With LK-2, the relative viability is 0.377 with Ispinesib + Phenformin (first compound 0.001 µM); 0.475 in the test with Ispinesib + Phenformin (first compound 0.003162 µM); 0.4 in the test with Ispinesib + Phenformin (first compound 0.01 µM); 0.318 in the test with Ispinesib + Phenformin (first compound 0.03162 µM); 0.291 with Ispinesib + Phenformin (first compound 0.1 µM); 0.169 with Ispinesib + Crizotinib (first compound 0.001 µM). The relative viability with Ispinesib + Crizotinib (first compound 0.003162 µM) was found to be 0.269; with Ispinesib + Crizotinib (first compound 0.01 µM), 0.213; with Ispinesib + Crizotinib (first compound 0.03162 µM), 0.21; with Ispinesib + Crizotinib (first compound 0.1 µM), 0.333; with Linsitinib + Olaparib (first compound 0.01 µM), 0.63; with Linsitinib + Olaparib (first compound 0.03162 µM) it was 0.721. Moreover, the relative viability stood at 0.683 with Linsitinib + Olaparib (first compound 0.1 µM); 0.415 with Linsitinib + Olaparib (first compound 0.3162 µM); 0.389 with Linsitinib + Olaparib (first compound 1 µM); 0.41 in the test with Linsitinib + Phenformin (first compound 0.01 µM); 0.498 in the test with Linsitinib + Phenformin (first compound 0.03162 µM); 0.515 in the test with Linsitinib + Phenformin (first compound 0.1 µM). For the same cell line, the relative viability with Linsitinib + Phenformin (first compound 0.3162 µM) was 0.201; with Linsitinib + Phenformin (first compound 1 µM), 0.187.

For ChaGo-K-1, the relative viability with Ispinesib + Phenformin (first compound 0.001 µM) was found to be 0.519; with Ispinesib + Phenformin (first compound 0.003162 µM) it was 0.5; with Ispinesib + Phenformin (first compound 0.01 µM), 0.529; with Ispinesib + Phenformin (first compound 0.03162 µM), 0.535; with Ispinesib + Phenformin (first compound 0.1 µM), 0.172; with Ispinesib + Crizotinib (first compound 0.001 µM), 1.26. The relative viability was 1.3 with Ispinesib + Crizotinib (first compound 0.003162 µM); 1.26 with Ispinesib + Crizotinib (first compound 0.01 µM); 0.841 in the test with Ispinesib + Crizotinib (first compound 0.03162 µM); 0.894 with Ispinesib + Crizotinib (first compound 0.1 µM); 0.426 with Linsitinib + Olaparib (first compound 0.01 µM); 0.404 in the test with Linsitinib + Olaparib (first compound 0.03162 µM). Also, the relative viability with Linsitinib + Olaparib (first compound 0.1 µM) came out at 0.401; in the test with Linsitinib + Olaparib (first compound 1 µM), 0.365; in the test with Linsitinib + Phenformin (first compound 0.01 µM), 0.527; with Linsitinib + Phenformin (first compound 0.03162 µM), 0.515; with Linsitinib + Phenformin (first compound 0.1 µM), 0.499; in the test with Linsitinib + Phenformin (first compound 0.3162 µM), 0.332. Besides, in the test with Linsitinib + Phenformin (first compound 1 µM), the relative viability was 0.457.

As for HCC-78, the relative viability in the test with Ispinesib + Phenformin (first compound 0.001 µM) was found to be 0.738; with Ispinesib + Phenformin (first compound 0.003162 µM), 0.896; in the test with Ispinesib + Phenformin (first compound 0.01 µM), 0.743; in the test with Ispinesib + Phenformin (first compound 0.03162 µM), 0.51; with Ispinesib + Phenformin (first compound 0.1 µM), 0.543; with Ispinesib + Crizotinib (first compound 0.001 µM), 0.348. Also, the relative viability was determined as 0.341 with Ispinesib + Crizotinib (first compound 0.003162 µM); 0.438 with Ispinesib + Crizotinib (first compound 0.01 µM); 0.272 with Ispinesib + Crizotinib (first compound 0.1 µM); 1 with Linsitinib + Olaparib (first compound 0.03162 µM); 0.706 with Linsitinib + Olaparib (first compound 0.1 µM); 0.916 with Linsitinib + Olaparib (first compound 0.3162 µM). The relative viability was found to be 0.506 with Linsitinib + Olaparib (first compound 1 µM); 0.551 with Linsitinib + Phenformin (first compound 0.01 µM); 0.717 with Linsitinib + Phenformin (first compound 0.03162 µM); 0.565 in the test with Linsitinib + Phenformin (first compound 0.1 µM); 0.701 with Linsitinib + Phenformin (first compound 0.3162 µM); 0.621 with Linsitinib + Phenformin (first compound 1 µM).
